Tests used:
[1] = system: hxk2Δ hxk1Δ glk1Δ yeast cells; assay: Glucose uptake in hxk2Δ hxk1Δ glk1Δ yeast cells; assay type: cell-based, S. cerevisiae; conditions: strain lacking glucose phosphorylation
Protocol: Zero-trans uptake of radioactively labeled [U-^14C]glucose, [U-^14C]fructose or [U-^14C]galactose by S. cerevisiae cells was determined in accordance with previous studies ([45], [75]). Cells were grown on different carbon sources depending on the experiment. For measuring glucose uptake activity in the tps1Δ and tps1Δ hxtΔ strains, cells were grown on YP medium containing 325 mM glycerol (measurement of 10 s). Typically, for compound characterization and kinetic studies in wild type and tps1Δ strains, cells were (pre)grown on Complete Synthetic medium supplemented with 110 mM galactose (measurement of 10 s). In the experiments on the influence of hexokinase activity on the sugar uptake rate, the measurement duration was shortened to 5 s and cells were always grown on YP medium containing 325 mM glycerol and 430 mM ethanol. After harvesting, cells were washed twice with ice-cold 25 mM MES-buffer pH 6, and resuspended in their respective medium without sugar to a final concentration of 45 mg (wet weight)/mL. The amount of added tracer was estimated to give a response close to at least 1000 counts per min in order to adequately counter background noise. […] The loaded filter was transferred to a scintillation vial containing 3 mL liquid scintillation cocktail (Ultima-Flo M, Perkin Elmer) and counted using the Hidex 300 SL. […]

female NMRI-nu mice = assay: In vivo toxicity and tolerability in mice; conditions: for abnormalities / toxic effects in liver and other organs at autopsy: daily i.p., toxic effects at 20 mg/kg WBC-15C and at 20 and 10 mg/kg WBC-11C, not at lower doses; for loss in body weight: daily intraperitoneal injection, 5, 10 and 20 mg/kg; for AST/ALT ratio vs vehicle: sera after 20 days, 5, 10, 20 mg/kg daily i.p.; for blood glucose level vs vehicle: sera post-mortem after 20 days, 5, 10, 20 mg/kg daily i.p.
Protocol: Warbicin ® in vivo toxicity and tolerability was examined by subjecting female NMRI-nu mice (12 weeks old) to daily intraperitoneal injection of either WBC-A, WBC-15C, WBC-4C or WBC-11C. Compounds were dosed at either 5 mg/kg, 10 mg/kg or 20 mg/kg over a period of 20 days. Three mice were used per condition. To evaluate toxicity, change in body weight was registered daily. As a humane endpoint, mice that lost more than 20% of their original body weight were prematurely sacrificed. In addition, liver function was examined by measuring the ratio of the AST to ALT enzyme activities (AbCam ab105135, ab105134) in sera samples collected at the end of the experiment. Furthermore, the blood glucose level in mice sera was determined using the colorimetric GOD-PAP method. Due to their considerable hydrophobicity, the compounds were dissolved in a sterilized 1xPBS, 5% DMSO and 5% Tween-80 solution until a homogenous suspension was obtained that could be administered in a reproducible way.

wild type yeast cells = assay: Growth of wild type yeast (general toxicity); assay type: cell-based, S. cerevisiae; conditions: 100 µM; 110 mM glucose medium and 325 mM glycerol + 430 mM ethanol medium
Protocol: (§1) Growth curves were made by measuring OD595 in a 96-well plate using the Multiskan™ FC Microplate Photometer (Thermo Fisher Scientific). Typically, for tps1Δ rescue experiments, cells were (pre)grown in Complete Synthetic medium containing 110 mM galactose. Compounds were always added 10 min prior to glucose addition to ensure maximal interaction between the cells and compounds. Cells originating from the preculture were harvested, washed in medium without sugar, after which they were resuspended to an OD of 0.1 in 200 µL of the appropriate medium. At least three technical replicates were included per condition. OD595 was measured at 30°C every 30 min with a 10-min shaking interval.

yeast tps1Δ strain = assay: Growth (rescue) of the yeast tps1Δ strain on galactose with or without glucose; assay type: cell-based, S. cerevisiae
Protocol: as §1

yeast Hxt7 = biological target: T1, yeast Hxt7 (Saccharomyces cerevisiae, UniProt P39004); assay: Glucose uptake by Hxt7 expressed in yeast RE700A hxt^0 gal2Δ; assay type: cell-based, S. cerevisiae; conditions: 25 µM, hxt^0 gal2Δ strain
T1 construct: expressed in transfected cells; host or cells: S. cerevisiae RE700A hxt0 gal2Δ (A7) or EBY.VW4000 hxt0 erg4Δ (A9) transformed with pHXT7
T1 sequence (P39004 whole entry): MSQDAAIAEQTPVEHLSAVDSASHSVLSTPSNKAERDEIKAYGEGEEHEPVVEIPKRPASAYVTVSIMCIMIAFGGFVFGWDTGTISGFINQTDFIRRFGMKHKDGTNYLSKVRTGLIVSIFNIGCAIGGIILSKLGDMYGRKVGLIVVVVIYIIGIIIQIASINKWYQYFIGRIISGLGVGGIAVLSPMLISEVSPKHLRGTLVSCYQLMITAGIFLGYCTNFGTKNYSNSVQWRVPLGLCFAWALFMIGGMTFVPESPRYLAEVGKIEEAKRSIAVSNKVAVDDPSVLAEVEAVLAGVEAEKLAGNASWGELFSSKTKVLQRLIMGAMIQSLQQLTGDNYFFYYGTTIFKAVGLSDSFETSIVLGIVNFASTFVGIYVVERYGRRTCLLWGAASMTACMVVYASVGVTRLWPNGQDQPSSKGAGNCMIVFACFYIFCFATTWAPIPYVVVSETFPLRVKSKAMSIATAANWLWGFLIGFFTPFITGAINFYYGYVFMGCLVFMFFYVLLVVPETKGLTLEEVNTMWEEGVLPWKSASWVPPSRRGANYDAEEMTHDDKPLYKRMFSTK
Protocol: Cells of S. cerevisiae were either grown in minimal or rich medium. For minimal medium, cells were grown in Complete Synthetic medium (MP biomedicals) containing 0.5% (w/v) ammonium sulphate (Sigma-Aldrich), 0.17% (w/v) yeast nitrogen base without amino acids and without ammonium sulphate, supplemented with 100 mg/L adenine. In the case of auxotrophic selection, the appropriate composition of essential amino acids (MP Biomedicals) was chosen. For liquid medium, pH was adjusted to 5.5 and for solid medium (2% agar) to 6.5 with KOH. For rich medium, cells were grown on YP medium (1% w/v yeast extract, 2% w/v bacteriological peptone), supplemented with 100 mg/L adenine. Cells of the EBY.VW4000 hxt^0 strain expressing a single HXT carrier or GLUT isoform were (pre)grown in YP medium with 58 mM maltose (which is taken up by its own dedicated maltose transporter). S. cerevisiae cells were always grown at 30°C. Liquid cultures were shaken at 200 rpm.
Zero-trans uptake of radioactively labeled [U-^14C]glucose, [U-^14C]fructose or [U-^14C]galactose by S. cerevisiae cells was determined in accordance with previous studies ([45], [75]). Cells were grown on different carbon sources depending on the experiment. […] The loaded filter was transferred to a scintillation vial containing 3 mL liquid scintillation cocktail (Ultima-Flo M, Perkin Elmer) and counted using the Hidex 300 SL. […]

[2] = system: hxk2Δ hxk1Δ GLK1 yeast cells; assay: Sugar uptake in hxk2Δ hxk1Δ GLK1 yeast cells; assay type: cell-based, S. cerevisiae
Protocol: Zero-trans uptake of radioactively labeled [U-^14C]glucose, [U-^14C]fructose or [U-^14C]galactose by S. cerevisiae cells was determined in accordance with previous studies ([45], [75]). Cells were grown on different carbon sources depending on the experiment. For measuring glucose uptake activity in the tps1Δ and tps1Δ hxtΔ strains, cells were grown on YP medium containing 325 mM glycerol (measurement of 10 s). Typically, for compound characterization and kinetic studies in wild type and tps1Δ strains, cells were (pre)grown on Complete Synthetic medium supplemented with 110 mM galactose (measurement of 10 s). In the experiments on the influence of hexokinase activity on the sugar uptake rate, the measurement duration was shortened to 5 s and cells were always grown on YP medium containing 325 mM glycerol and 430 mM ethanol. After harvesting, cells were washed twice with ice-cold 25 mM MES-buffer pH 6, and resuspended in their respective medium without sugar to a final concentration of 45 mg (wet weight)/mL. The amount of added tracer was estimated to give a response close to at least 1000 counts per min in order to adequately counter background noise. Cells were first preincubated for 10 min at 30°C with the compound to acclimate the cells to the temperature and to allow adequate interaction with the compound prior to uptake. Next, hexose sugar was mixed with the cell suspension, which was then incubated at 30°C for 5 or 10 s, depending on the experiment, after which the cells were rapidly filtered over a glass microfiber filter (Whatman GF/C) and washed three times with ice-cold dH2O. The loaded filter was transferred to a scintillation vial containing 3 mL liquid scintillation cocktail (Ultima-Flo M, Perkin Elmer) and counted using the Hidex 300 SL. Three blank measurements per strain were typically included to account for background signal, for which the cells were first quenched before adding the radioactive label.

hexokinase = assay: Hexokinase activity in extracts of wild type yeast cells; assay type: biochemical, S. cerevisiae; conditions: 50 µM; variable glucose / 5 mM ATP and variable ATP / 5 mM glucose
Protocol: In vitro hexokinase activity of yeast cells was determined as described previously ([44], [76]). As such, the yeast cells were first grown to exponential phase on Complete Synthetic medium supplemented with 110 mM galactose. The cells were harvested and washed with ice-cold 25 mM MES buffer pH 6. Subsequently, cells were resuspended in lysis buffer (50 mM HEPES pH 7, 150 mM NaCl, 2.5 mM MgCl2, 5% glycerol and 1% Triton X-100) containing protease inhibitor after which the yeast cells were mechanically lysed. After protein level determination, total protein concentration was diluted to 0.1 mg/mL in reaction buffer (50 mM HEPES pH 7, 150 mM NaCl, 2.5 mM MgCl2, 5% glycerol). For measuring activity, reaction buffer was supplemented with 1.07 mM NADP^+ and 10 U/mL Glu6P dehydrogenase (Sigma-Aldrich G7877). After temperature equilibration of the plate at 30°C, the reaction was started by adding both ATP and glucose to the reaction buffer. OD340 was measured using the Synergy H1 Hybrid reader and hexokinase activity was determined based on the linear increase of absorbance in the first 10-20 s.

[3] = 250 µM CCCP or 50 µM WBC-A 10 min prior, 100 mM maltose with the tracer

| Compound | 1 mM glucose uptake rate [1] | abnormalities / toxic effects in liver and other organs at autopsy (female NMRI-nu mice; 20 days) | loss in body weight (female NMRI-nu mice; nude mice, 20 days) | AST/ALT ratio vs vehicle (female NMRI-nu mice) | blood glucose level vs vehicle (female NMRI-nu mice) | growth inhibition of wild type yeast (wild type yeast cells) | rescue of growth on galactose in the presence of 5 mM glucose (yeast tps1Δ strain; 100 μM) | restoration of growth in the presence of 7.5 mM glucose (yeast tps1Δ strain; 100 μM) | Rescue of the tps1∆ strain on 2.5 mM glucose at 100 µM (yeast tps1Δ strain) | Minimal rescue concentration for growth of tps1∆ cells on 2.5 mM glucose (yeast tps1Δ strain) | inhibition of 2.5 mM glucose uptake by Hxt7 (yeast Hxt7) | fructose uptake at tracer concentration [2, 3] | glucose uptake at tracer concentration [2, 3] | inhibition at 50 µM ([2]; Saccharomyces cerevisiae, read-out: inhibition of fructose transport) | effect on in vitro hexokinase activity (hexokinase) | adipose tissue at autopsy (female NMRI-nu mice; nude mice, daily i.p., 5, 10 and 20 mg/kg, 20 days, visual inspection vs vehicle) |
| --- | --- | --- | --- | --- | --- | --- | --- | --- | --- | --- | --- | --- | --- | --- | --- | --- |
| Cc1nc(Sc2nnc3n2CCCCC3)c2c(-c3cccs3)csc2n1 [WBC-A] | little further inhibition | No other abnormalities | no significant loss in body weight | No significant difference | No significant difference | did not cause any growth inhibition at all | rescued growth | not able to restore growth | Yes | 25 µM | inhibited glucose uptake both by Hxt7 and GLUT1^V69M | little inhibition of fructose uptake | strong inhibition of glucose uptake | ~30% | No significant effect | – |
| Cc1nc(SCC(=O)c2ccc3c(c2)NC(=O)CO3)c2c(-c3cccs3)csc2n1 [WBC-11C] | – | toxic effects were seen in the liver and other organs | small transient drop | No significant difference | No significant difference | – | – | – | Yes | 50 µM | – | – | – | – | – | adipose tissue was also observed in between the intestines |

From PMC11374660, “The novel family of Warbicin® compounds inhibits glucose uptake both in yeast and human cells and restrains cancer cell proliferation” (Frontiers in Oncology, 2024)
